The nature of data set [1]: LD50 of Staurosporine (note to Table 5). Particulars: in vivo; species and route not printed in the note.
Data set [2] relates to lymphocytic leukemia P388 tumor. Kind of data set: Therapeutic effect on lymphocytic leukemia P388 tumor. The data set is classed as in vivo, male CDF1 mice. As to the method:
Therapeutic effect on lymphocytic leukemia P388 tumor:
Five male CDF1 mice each having a weight of about 22 g were used for each group as test animals, and 1×10^6 cells of lymphocytic leukemia P388 tumor were implanted intraperitoneally in the test animals. 24 hours after implantation, 0.2 ml of a phosphate buffer saline (hereafter referred to as PBS) containing UCN-01 was intraperitoneally administered.
The composition of PBS was 0.8% NaCl, 0.02% KCl, 1.15% Na2 HPO4, […] 0.02% KH2 PO4 (pH 7.0).
For comparison, 0.2 ml of PBS solution containing Staurosporine was intraperitoneally administered 24 hours after the implantation of the tumor cells. Increased life span (T/C) (T: mean survival days of the treated group, C: mean survival days of the control group) is shown in Table 5.

Data set [3] concerns Bacillus subtilis No. 10707. Nature of the data set: Anti-bacterial activity, agar dilution method (MIC). It is filed as cell-based. Particulars: pH 7. As to the method:
(§1) The minimum inhibitory concentration (MIC) against various microorganisms is shown below.
(§2) The anti-bacterial activity was measured by the agar dilution method, using a medium (pH 7) prepared by dissolving 3 g of Bacto-Tryptone (manufacturedby Difco Co., Ltd.), 3 g of meat extract, 1 g of yeast extract, 1 g of glucose and 16 g of agar in 1 (of water.
On the technique in general: In agar dilution, organisms are placed on agar that contains the substance at set levels.

The subject of the next data set is Escherichia coli ATCC 26. The description is as above. The data set is classed as cell-based. The settings on record: ATCC26, pH 7. As to the method:
as §1, §2

The subject of data set [4] is Klebsiella pneumoniae ATCC 10031. The description is as above. It is filed as cell-based. The settings on record: ATCC10031, pH 7. On the procedure: as §1, §2
For data set [5], the system named is Salmonella typhi ATCC 9992. The data set is described as above. It is filed as cell-based. Particulars: Salmonella enterica, pH 7. On the procedure:
as §1, §2

Data set [6] relates to Shigella sonnei ATCC 9290. The description is as above. It is filed as cell-based. Particulars: ATCC9290, pH 7. As to the method: as §1, §2
The test system of data set [7] is Staphylococcus aureus ATCC 6538P. Described as above. It is filed as cell-based. Particulars: ATCC6538P, pH 7. On the procedure: as §1, §2
Data set [8] is described as follows: Acute toxicity (LD50), intraperitoneal administration to mice. Particulars: mouse, in vivo, ip. As to the method: The acute toxicity value (LD50) was 30 mg/kg by intraperitoneal administration to mice.

Values after ≈ are worked out from the molar mass of the structure shown.

For orientation: LD50 means the dose at which mortality reaches 50%. In general, MIC refers to the lowest concentration that inhibits growth of the organism. A low value points to inhibition by little substance.

Consider `CN[C@@H]1C[C@H]2O[C@@](C)([C@@H]1OC)n1c3ccccc3c3c4c(c5c6ccccc6n2c5c31)C(=O)NC4` [Staurosporine, reference compound], for which the median lethal dose (LD50) in [1] stood at 6.6 mg/kg. For the same compound, the “Increased Life Span (T/C)” value in data set [2] (1 mg/kg, intraperitoneal, 24 hours after implantation) was 1.10; in data set [2] (2 mg/kg, intraperitoneal, 24 hours after implantation), 1.12; in data set [2] (4 mg/kg, intraperitoneal, 24 hours after implantation) it was 1.08.
As to `CNC1CC2OC(C)(C1OC)n1c3ccccc3c3c4c(c5c6ccccc6n2c5c31)C(=O)NC4O` (stereo not drawn) [UCN-01], the MIC in data set [3] is greater than 100 µg/mL; against Escherichia coli ATCC 26, 83 µg/mL (≈ 172 µM); in [4], 83 µg/mL (≈ 172 µM); in data set [5] it was 83 µg/mL (≈ 172 µM); in [6] it was 100 µg/mL (≈ 207 µM); in data set [7], 83 µg/mL (≈ 172 µM). The compound also registered an LD50 in data set [8] of 30 mg/kg. Besides, the “Increased Life Span (T/C)” value was 1.12 in data set [2] (7.5 mg/kg, intraperitoneal, 24 hours after implantation) and 1.24 in [2] (15 mg/kg, intraperitoneal, 24 hours after implantation). Besides, the “Increased Life Span (T/C): toxic” value in data set [2] (30 mg/kg, intraperitoneal, 24 hours after implantation) was “toxic”. In data set [2] (comparison with staurosporine, in words), the “anti-tumor activity as compared with staurosporine” value is recorded as “superior anti-tumor activity”.

Source of the values: patent US4935415A, “UCN-01 and process for production thereof” (priority 1986, dated 1990).
